Measurements from ChEMBL document CHEMBL5653615 (J Biol Chem, 2013).

Experiments:
[1] = molecular target: Tyrosine-protein kinase ABL1 (Homo sapiens) (UniProt P00519); experiment: Inhibition of human ABL1 at 18.6 nM by HotSpot assay relative to control
[2] = molecular target: T1, Serine/threonine-protein kinase Chk1 (Homo sapiens) (UniProt O14757); experiment: Inhibition of human CHK1 at 18.6 nM by HotSpot assay relative to control
T1 sequence (whole entry): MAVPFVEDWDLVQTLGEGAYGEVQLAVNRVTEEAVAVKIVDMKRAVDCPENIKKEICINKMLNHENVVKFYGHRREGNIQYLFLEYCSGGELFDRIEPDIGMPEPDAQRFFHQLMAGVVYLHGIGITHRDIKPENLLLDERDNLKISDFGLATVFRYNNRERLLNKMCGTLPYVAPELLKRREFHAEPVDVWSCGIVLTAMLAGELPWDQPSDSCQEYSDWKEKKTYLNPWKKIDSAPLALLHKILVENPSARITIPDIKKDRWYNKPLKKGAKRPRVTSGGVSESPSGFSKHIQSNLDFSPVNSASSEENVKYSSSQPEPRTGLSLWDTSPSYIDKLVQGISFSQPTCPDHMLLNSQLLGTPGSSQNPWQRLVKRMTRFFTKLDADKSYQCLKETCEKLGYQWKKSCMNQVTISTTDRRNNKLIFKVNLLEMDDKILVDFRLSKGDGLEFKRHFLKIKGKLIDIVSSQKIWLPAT

[3] = molecular target: Ephrin type-A receptor 7 (Homo sapiens) (UniProt Q15375); experiment: Inhibition of human EPHA7 at 18.6 nM by HotSpot assay relative to control
[4] = molecular target: Fibroblast growth factor receptor 1 (Homo sapiens) (UniProt P11362); experiment: Inhibition of human FGFR1 at 18.6 nM by HotSpot assay relative to control
[5] = molecular target: T2, Serine/threonine-protein kinase STK11 (Homo sapiens) (UniProt Q15831); experiment: Inhibition of human LKB1 at 18.6 nM by HotSpot assay relative to control
T2 sequence (whole entry): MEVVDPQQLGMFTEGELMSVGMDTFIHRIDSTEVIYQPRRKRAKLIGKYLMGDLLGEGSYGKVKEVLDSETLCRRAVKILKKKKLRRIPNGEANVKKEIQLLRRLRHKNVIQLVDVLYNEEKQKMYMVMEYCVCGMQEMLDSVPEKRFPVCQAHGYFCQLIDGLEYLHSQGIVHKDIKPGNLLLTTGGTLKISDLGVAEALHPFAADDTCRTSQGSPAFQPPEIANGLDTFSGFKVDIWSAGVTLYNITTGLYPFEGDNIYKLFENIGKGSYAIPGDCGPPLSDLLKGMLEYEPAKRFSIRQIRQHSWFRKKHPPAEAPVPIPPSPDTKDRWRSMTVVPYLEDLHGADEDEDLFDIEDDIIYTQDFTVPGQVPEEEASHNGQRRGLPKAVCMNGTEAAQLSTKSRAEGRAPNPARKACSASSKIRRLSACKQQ

[6] = molecular target: SRSF protein kinase 3 (Homo sapiens) (UniProt Q9UPE1); experiment: Inhibition of human STK23 at 18.6 nM by HotSpot assay relative to control
[7] = molecular target: Serine/threonine-protein kinase PAK 4 (Homo sapiens) (UniProt O96013); experiment: Inhibition of human PAK4 at 18.6 nM by HotSpot assay relative to control
[8] = molecular target: Phosphorylase b kinase gamma catalytic chain, skeletal muscle/heart isoform (Homo sapiens) (UniProt Q16816); experiment: Inhibition of human PHKg1 at 18.6 nM by HotSpot assay relative to control
[9] = molecular target: T3, Testis-specific serine/threonine-protein kinase 1 (Homo sapiens) (UniProt Q9BXA7); experiment: Inhibition of human TSSK1 at 18.6 nM by HotSpot assay relative to control
T3 sequence (whole entry): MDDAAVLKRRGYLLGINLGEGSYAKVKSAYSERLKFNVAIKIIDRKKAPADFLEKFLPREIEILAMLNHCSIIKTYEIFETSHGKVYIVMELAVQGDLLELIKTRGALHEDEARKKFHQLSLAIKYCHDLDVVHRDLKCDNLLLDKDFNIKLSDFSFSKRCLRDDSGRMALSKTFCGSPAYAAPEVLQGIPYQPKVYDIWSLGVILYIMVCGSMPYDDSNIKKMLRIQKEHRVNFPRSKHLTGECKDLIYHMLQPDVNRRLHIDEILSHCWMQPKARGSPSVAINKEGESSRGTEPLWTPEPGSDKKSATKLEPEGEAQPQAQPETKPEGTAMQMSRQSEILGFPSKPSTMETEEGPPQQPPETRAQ

[10] = molecular target: T4, Activin receptor type-1 (Homo sapiens) (UniProt Q04771); experiment: Inhibition of human ALK2 at 1.82 nM by HotSpot assay relative to control
T4 sequence (whole entry): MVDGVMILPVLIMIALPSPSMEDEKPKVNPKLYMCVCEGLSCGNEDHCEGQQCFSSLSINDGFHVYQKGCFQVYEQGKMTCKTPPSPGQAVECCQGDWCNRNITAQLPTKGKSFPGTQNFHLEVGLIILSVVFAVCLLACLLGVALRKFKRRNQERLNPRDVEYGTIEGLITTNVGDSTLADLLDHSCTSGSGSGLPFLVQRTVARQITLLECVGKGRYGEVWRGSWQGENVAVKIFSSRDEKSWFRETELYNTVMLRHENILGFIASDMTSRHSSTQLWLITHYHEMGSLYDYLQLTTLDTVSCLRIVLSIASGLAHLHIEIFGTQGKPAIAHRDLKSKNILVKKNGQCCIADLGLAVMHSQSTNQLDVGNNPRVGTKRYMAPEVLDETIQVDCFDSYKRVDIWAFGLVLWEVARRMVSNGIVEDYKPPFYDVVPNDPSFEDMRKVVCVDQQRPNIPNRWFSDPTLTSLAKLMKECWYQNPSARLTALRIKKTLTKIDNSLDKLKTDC

[11] = molecular target: Calcium/calmodulin-dependent protein kinase type II subunit alpha (Homo sapiens) (UniProt Q9UQM7); experiment: Inhibition of human CAMK2a at 1.82 nM by HotSpot assay relative to control
[12] = molecular target: Calcium/calmodulin-dependent protein kinase kinase 2 (Homo sapiens) (UniProt Q96RR4); experiment: Inhibition of human CAMKK2 at 1.82 nM by HotSpot assay relative to control
[13] = molecular target: Mitogen-activated protein kinase 10 (Homo sapiens) (UniProt P53779); experiment: Inhibition of human JNK3 at 1.82 nM by HotSpot assay relative to control
[14] = molecular target: MAP kinase-activated protein kinase 3 (Homo sapiens) (UniProt Q16644); experiment: Inhibition of human MAPKAPK3 at 1.82 nM by HotSpot assay relative to control
[15] = molecular target: Serine/threonine-protein kinase N2 (Homo sapiens) (UniProt Q16513); experiment: Inhibition of human PRK2 at 1.82 nM by HotSpot assay relative to control
[16] = molecular target: Serine/threonine-protein kinase PLK1 (Homo sapiens) (UniProt P53350); experiment: Inhibition of human PLK1 at 1.82 nM by HotSpot assay relative to control
[17] = molecular target: Receptor-interacting serine/threonine-protein kinase 2 (Homo sapiens) (UniProt O43353); experiment: Inhibition of human RIPK2 at 1.82 nM by HotSpot assay relative to control

Serine/threonine-protein kinase PLK1 (Homo sapiens), sequence (P53350 whole entry): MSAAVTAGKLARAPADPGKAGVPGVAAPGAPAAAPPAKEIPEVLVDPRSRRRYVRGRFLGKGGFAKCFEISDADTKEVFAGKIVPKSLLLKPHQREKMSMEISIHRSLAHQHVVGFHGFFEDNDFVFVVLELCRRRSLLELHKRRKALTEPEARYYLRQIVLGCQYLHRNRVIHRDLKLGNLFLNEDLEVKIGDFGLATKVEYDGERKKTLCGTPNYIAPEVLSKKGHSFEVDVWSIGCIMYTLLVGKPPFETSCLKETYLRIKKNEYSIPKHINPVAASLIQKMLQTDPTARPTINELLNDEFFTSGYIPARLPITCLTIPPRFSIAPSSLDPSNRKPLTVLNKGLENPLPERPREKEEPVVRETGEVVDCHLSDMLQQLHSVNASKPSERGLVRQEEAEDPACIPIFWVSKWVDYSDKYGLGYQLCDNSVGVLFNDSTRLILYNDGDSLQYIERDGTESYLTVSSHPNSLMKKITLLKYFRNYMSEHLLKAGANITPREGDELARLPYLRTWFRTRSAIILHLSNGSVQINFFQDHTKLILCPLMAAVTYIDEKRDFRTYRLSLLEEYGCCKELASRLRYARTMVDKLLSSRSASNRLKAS
Calcium/calmodulin-dependent protein kinase type II subunit alpha (Homo sapiens), sequence (Q9UQM7 whole entry): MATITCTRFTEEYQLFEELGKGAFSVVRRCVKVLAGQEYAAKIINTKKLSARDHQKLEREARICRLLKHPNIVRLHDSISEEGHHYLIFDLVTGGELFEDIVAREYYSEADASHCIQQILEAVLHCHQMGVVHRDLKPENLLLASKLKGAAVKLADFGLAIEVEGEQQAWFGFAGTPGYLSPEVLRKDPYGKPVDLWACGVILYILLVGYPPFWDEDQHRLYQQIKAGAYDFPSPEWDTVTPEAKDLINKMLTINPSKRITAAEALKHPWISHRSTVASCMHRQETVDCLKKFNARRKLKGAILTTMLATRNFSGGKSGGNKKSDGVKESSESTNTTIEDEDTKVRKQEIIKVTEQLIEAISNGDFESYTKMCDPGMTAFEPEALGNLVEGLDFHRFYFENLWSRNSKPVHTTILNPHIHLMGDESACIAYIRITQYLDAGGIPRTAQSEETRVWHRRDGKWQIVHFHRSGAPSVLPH
Tyrosine-protein kinase ABL1 (Homo sapiens), sequence (P00519 whole entry): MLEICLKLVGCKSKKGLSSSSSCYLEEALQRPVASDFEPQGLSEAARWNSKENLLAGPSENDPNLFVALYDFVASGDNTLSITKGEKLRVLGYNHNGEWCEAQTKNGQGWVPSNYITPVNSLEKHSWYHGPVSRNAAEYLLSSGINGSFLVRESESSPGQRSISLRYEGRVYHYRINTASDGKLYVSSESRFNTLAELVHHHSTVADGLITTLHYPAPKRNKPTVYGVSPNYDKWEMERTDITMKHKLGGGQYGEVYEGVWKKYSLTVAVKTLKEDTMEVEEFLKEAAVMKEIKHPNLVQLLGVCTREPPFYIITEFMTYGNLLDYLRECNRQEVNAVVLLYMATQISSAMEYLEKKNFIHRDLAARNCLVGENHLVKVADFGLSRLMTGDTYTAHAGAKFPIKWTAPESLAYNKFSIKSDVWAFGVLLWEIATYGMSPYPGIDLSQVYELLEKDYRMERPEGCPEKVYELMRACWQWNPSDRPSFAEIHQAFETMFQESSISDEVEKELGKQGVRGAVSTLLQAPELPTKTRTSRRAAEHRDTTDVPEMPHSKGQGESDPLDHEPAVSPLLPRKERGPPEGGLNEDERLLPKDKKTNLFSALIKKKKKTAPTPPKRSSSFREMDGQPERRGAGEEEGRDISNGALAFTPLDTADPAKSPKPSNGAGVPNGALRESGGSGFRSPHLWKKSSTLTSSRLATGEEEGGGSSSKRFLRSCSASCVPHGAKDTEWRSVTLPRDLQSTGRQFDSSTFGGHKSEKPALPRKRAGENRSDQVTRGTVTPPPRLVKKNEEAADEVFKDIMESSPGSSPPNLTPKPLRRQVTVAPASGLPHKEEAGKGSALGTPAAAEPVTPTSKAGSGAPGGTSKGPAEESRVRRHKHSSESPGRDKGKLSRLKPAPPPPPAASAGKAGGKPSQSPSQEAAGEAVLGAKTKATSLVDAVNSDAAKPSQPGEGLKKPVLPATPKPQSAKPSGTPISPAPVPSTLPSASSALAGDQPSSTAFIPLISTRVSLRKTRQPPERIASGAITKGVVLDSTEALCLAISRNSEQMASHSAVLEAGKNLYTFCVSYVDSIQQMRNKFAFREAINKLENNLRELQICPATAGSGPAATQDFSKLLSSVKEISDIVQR
Calcium/calmodulin-dependent protein kinase kinase 2 (Homo sapiens), sequence (Q96RR4 2-588 limits assumed): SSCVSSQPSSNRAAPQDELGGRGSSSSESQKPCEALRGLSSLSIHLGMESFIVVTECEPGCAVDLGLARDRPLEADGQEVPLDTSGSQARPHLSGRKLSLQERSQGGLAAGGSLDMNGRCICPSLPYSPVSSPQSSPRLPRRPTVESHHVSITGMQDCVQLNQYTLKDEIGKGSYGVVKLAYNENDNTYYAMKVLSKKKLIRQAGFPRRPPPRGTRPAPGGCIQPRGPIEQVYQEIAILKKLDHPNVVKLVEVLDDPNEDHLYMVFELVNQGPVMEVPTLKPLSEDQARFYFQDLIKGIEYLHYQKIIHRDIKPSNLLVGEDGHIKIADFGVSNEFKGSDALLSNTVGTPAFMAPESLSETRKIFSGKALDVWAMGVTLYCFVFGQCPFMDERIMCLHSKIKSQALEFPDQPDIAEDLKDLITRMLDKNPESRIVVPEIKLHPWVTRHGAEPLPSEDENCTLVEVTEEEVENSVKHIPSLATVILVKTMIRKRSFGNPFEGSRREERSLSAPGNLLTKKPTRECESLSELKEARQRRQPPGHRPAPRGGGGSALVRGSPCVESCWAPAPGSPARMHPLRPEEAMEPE
SRSF protein kinase 3 (Homo sapiens), sequence (Q9UPE1 whole entry): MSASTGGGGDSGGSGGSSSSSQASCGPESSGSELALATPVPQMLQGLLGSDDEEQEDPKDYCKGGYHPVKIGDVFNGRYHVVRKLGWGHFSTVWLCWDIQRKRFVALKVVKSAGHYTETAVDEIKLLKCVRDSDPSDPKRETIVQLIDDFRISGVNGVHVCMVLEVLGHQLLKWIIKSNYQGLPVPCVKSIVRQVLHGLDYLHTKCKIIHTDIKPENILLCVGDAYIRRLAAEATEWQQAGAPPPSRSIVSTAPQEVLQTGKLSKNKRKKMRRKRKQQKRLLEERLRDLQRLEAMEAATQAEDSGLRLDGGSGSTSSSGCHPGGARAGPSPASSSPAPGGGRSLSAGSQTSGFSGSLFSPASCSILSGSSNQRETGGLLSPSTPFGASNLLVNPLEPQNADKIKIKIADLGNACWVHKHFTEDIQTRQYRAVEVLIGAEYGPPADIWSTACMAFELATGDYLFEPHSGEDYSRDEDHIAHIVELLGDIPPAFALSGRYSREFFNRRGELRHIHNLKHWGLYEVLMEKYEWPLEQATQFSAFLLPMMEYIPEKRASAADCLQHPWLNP
Fibroblast growth factor receptor 1 (Homo sapiens), sequence (P11362 22-822 limits assumed): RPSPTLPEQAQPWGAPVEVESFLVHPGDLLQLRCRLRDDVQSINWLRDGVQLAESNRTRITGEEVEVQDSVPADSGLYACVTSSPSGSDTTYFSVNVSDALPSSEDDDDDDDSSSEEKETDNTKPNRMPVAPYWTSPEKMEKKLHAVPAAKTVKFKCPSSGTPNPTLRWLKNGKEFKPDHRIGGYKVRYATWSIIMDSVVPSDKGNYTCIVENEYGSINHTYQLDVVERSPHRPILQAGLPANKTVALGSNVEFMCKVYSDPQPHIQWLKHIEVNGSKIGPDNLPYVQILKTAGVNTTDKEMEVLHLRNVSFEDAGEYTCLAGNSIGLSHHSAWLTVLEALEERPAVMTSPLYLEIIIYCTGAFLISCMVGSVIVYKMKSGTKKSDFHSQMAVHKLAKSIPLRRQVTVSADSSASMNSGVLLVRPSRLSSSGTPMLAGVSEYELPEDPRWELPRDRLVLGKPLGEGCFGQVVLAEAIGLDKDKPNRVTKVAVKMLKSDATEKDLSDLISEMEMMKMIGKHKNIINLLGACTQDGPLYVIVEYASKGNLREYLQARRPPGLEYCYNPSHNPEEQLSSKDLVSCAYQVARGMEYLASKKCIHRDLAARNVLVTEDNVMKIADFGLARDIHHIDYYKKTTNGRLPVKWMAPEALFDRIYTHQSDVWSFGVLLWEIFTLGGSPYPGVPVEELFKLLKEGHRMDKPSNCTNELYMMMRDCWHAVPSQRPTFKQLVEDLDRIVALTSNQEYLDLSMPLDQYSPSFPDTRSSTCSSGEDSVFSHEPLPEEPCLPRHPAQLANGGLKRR
Mitogen-activated protein kinase 10 (Homo sapiens), sequence (P53779 whole entry): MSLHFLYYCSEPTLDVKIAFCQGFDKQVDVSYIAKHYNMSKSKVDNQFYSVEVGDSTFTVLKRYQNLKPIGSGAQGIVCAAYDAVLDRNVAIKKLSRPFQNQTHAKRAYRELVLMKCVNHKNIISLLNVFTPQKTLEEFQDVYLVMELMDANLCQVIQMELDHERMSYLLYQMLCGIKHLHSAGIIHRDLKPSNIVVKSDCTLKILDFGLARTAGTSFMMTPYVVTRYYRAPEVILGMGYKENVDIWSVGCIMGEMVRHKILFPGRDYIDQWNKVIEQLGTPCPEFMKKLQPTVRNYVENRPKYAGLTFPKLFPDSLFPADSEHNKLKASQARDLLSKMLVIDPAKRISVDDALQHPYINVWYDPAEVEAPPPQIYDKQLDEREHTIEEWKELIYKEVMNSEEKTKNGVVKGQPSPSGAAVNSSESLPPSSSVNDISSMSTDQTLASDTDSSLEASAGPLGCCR
Phosphorylase b kinase gamma catalytic chain, skeletal muscle/heart isoform (Homo sapiens), sequence (Q16816 whole entry, looked up, canonical isoform): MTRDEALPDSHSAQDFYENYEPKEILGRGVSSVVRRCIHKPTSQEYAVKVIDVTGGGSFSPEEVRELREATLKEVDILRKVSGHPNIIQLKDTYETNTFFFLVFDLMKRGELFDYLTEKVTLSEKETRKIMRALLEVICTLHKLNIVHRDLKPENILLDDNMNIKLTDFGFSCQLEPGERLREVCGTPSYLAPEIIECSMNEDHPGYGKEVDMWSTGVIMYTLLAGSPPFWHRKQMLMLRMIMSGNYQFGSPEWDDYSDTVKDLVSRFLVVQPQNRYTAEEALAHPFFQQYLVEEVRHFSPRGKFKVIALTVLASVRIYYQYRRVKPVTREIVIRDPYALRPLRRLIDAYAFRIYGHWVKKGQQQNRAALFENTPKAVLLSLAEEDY

inhibition [1] [%] | inhibition [2] [%] | inhibition [3] [%] | inhibition [4] [%] | inhibition [5] [%] | inhibition [6] [%] | inhibition [7] [%] | inhibition [8] [%] | inhibition [9] [%] | inhibition [10] [%] | inhibition [11] [%] | inhibition [12] [%] | inhibition [13] [%] | inhibition [14] [%] | inhibition [15] [%] | inhibition [16] [%] | inhibition [17] [%] | Structure (SMILES)
9.07 | -5.11 | 2.17 | -8.13 | 2.28 | -2.07 | -5.78 | 6.05 | -3.16 | – | – | – | – | – | – | – | – | C[C@]1(O)C[C@@H](c2nc(-c3ccc4ccc(-c5ccccc5)nc4c3)c3c(N)nccn32)C1
– | – | – | – | – | – | – | – | – | 5.9 | -2.76 | 26.5 | -8.84 | -1.61 | -0.34 | -4.97 | 6.56 | C[C@@]1(C(=O)Nc2ccc(F)nc2)CCCN1c1nc(Nc2cc(C3CC3)n[nH]2)c2cccn2n1
